Key:
Format in all cases: in vivo
[1] = system: writhing (mouse); assay: Writhing test (mouse), 60 minutes after peroral administration; conditions: po, 1 h, orally, 60 minutes after administration, 50% of animals show no more than one writhing
Description: In carrying out the experiment there are used in each case 8 male mice (20-22 g) per dosage. 60 minutes after the oral administration of the test substance 10 ml/kg of the test solution is administered to the animals by intraperitoneal injection. After a latent period of 5 minutes, the number of animals in which during 5 minutes no more than one characteristic writhing symptom, that is, convulsive stretching movement of the body, occurs is registered. The ED 50 indicates the oral dosage in mg/kg at which 50% of the animals show no more than one writhing.
60 minutes after peroral administration

[2] = system: Anaesthetized cat; assay: Blood pressure and heart rate in the anaesthetized cat (i.v.); conditions: maximum variation from control
Description: (§1) The action of the test compounds on the activity in the sympathetic nervous system is investigated on cats in urethane narcosis. The preganglionic sympathetic activity is derived by means of biopolar platinum electrodes from the splanchnic nerve and the postganglionic sympathetic activity is derived from a nerve branch to the kidney according to the method of G. Hausler [Naunyn-Schmiedeberg's Arch. Pharmacol. 286, 97-111 (1974)]. Moreover, there is measured the arterial blood pressure from the femoral artery as well as the heart rate. The test substance is injected intravenously. When a test substance in blood pressure-lowering dosages inhibits the sympathetic activity during more than 30 minutes by more than 30%, then it is qualified as having "central sympathetic-inhibitory activity".
(§2) In the Table which follows, the results obtained with compounds A to H are compiled. The maximum percentage variations from the control values are given.

[3] = system: sympathetic nervous system; assay: Central sympathetic-inhibitory activity (cats in urethane narcosis); conditions: anaesthetized cat, i.v.; positive if sympathetic activity inhibited >30% for >30 minutes in blood pressure-lowering dosages
Source text: The central sympathetic-inhibitory activity can be determined according to the following method:
as §1

[4] = system: Spontaneously hypertensive rat; assay: Cardiovascular activities: systolic blood pressure and heart rate in conscious spontaneously hypertensive rats (p.o.); conditions: maximum variation from control
Description: The cardiovascular activities can be determined according to the following method:
The systolic blood pressure and the heart rate are measured several times on conscious, spontaneously hypertensive female rats before the administration of the subtance. Per dosage there are used 5 experimental animals with a body weight of about 300 g. The administration of substance is carried out by means of a stomach probe. Both parameters are measured 1, 3, 6 and 16 hours after the administration and the percentage variation from the control values is calculated. The systolic blood pressure is measured indirectly at the tail artery of the rate according to the method of Gerold et al. (Helv. Physiol. Acta 24, 58-69 (1966); Arzneimittelforschung 18, 1285-1287 (1968).
as §2

[5] = system: electrical stimulation of the dental pulp; assay: Activity against an electrical stimulation of the dental pulp in apes, peroral; conditions: after peroral administration
[6] = system: morphine-antagonistic activity; assay: Morphine-antagonistic activity
[7] = system: α-adrenergic receptor; assay: Cancellation of the analgesia by the α-adrenergic receptor blocker yohimbine
[8] = system: opiate receptor; assay: Cancellation of the analgesia by the opiate receptor blocker naloxone

SMILES	ED50 [1] [mg/kg]	Blood pressure, Δ% ([2]; 1.0 mg/kg (i.v.)) [%]	Heart rate, Δ% ([2]; 1.0 mg/kg (i.v.)) [%]	Heart rate, Δ% ([2]; 3.0 mg/kg (i.v.)) [%]	Central sympathetic-inhibitory activity [3]	Blood pressure, Δ% ([2]; 3.0 mg/kg (i.v.)) [%]	Blood pressure, Δ% ([2]; 10.0 mg/kg (i.v.)) [%]	Heart rate, Δ% ([2]; 10.0 mg/kg (i.v.)) [%]	Blood pressure, Δ% ([4]; 1.0 mg/kg (p.o.))	Heart rate, Δ% ([4]; 1.0 mg/kg (p.o.))	Blood pressure, Δ% ([4]; 3.0 mg/kg (p.o.))	Heart rate, Δ% ([4]; 3.0 mg/kg (p.o.))	Blood pressure, Δ% ([4]; 10.0 mg/kg (p.o.))	Heart rate, Δ% ([4]; 10.0 mg/kg (p.o.))	further results
[O-][n+]1ccc(O)cc1CON1CCNC1=Nc1c(Cl)cccc1Cl [H, 2-([{2-[(2,6-Dichlorophenyl)imino]-1-imidazolidinyl}oxy]methyl)-4-pyridinol 1-oxide]	8.7	-12	0	-2	none										Blood pressure, Δ% ([2]; 3.0 mg/kg (i.v.), (10')): -27%; Blood pressure, Δ% ([2]; 10.0 mg/kg (i.v.), (10')): -62%; Heart rate, Δ% ([2]; 10.0 mg/kg (i.v.), (10')): -18%
Cc1ccc(CON2CCNC2=Nc2c(Cl)cccc2Cl)[n+]([O-])c1 [F, 2-([{2-[(2,6-Dichlorophenyl)imino]-1-imidazolidinyl}oxy]methyl)-5-methylpyridin 1-oxide]	27	0	0	0	none	0	0	-10	-9.6%	-4.9%	-10.4%	-5.5%			
Cc1cccc(CON2CCNC2=Nc2c(Cl)cccc2Cl)[n+]1[O-] [G, 2-([{2-[(2,6-Dichlorophenyl)imino]-1-imidazolidinyl}oxy]methyl)-6-methylpyridin 1-oxide]	16	-4	0	-4	none	-4	-15	-13					-12.0%	-22.6%	
[O-][n+]1ccccc1CON1CCNC1=Nc1c(Cl)cccc1Cl [Compound A, 2-([{2-[(2,6-Dichlorophenyl)imino]-1-imidazolidinyl}oxy]methyl)pyridine 1-oxide]	3.5	-5	-5	-5	none	-10	-10	-29	-0.2%	+15.2%	+0.3%	+3.3%	-3.1%	-9.6%	activity against an electrical stimulation of the dental pulp, relative to morphine [5]: three-times stronger activity than morphine; addictive activity ([6]; concluded from lack of morphine-antagonistic activity): absence of an addictive activity; morphine-antagonistic activity ([6]; in vivo): no morphine-antagonistic activity could be found; cancellation of analgesia with yohimbine [7]: can be cancelled out; cancellation of analgesia with naloxone [8]: not with the opiate receptor blocker naloxone; Blood pressure, Δ% ([4]; 30.0 mg/kg (p.o.)): -10.5%; Heart rate, Δ% ([4]; 30.0 mg/kg (p.o.)): -3.6%; Blood pressure, Δ% ([4]; 100.0 mg/kg (p.o.)): 0%; Heart rate, Δ% ([4]; 100.0 mg/kg (p.o.)): 0%
CC(ON1CCNC1=Nc1c(Cl)cccc1Cl)c1cc[n+]([O-])cc1 (centres unmarked) [E, 4-(1-[{2-[(2,6-Dichlorophenyl)imino]-1-imidazolidinyl}oxy]ethyl)pyridine1-oxide]	7.3	0	0	0	none	-4	-12	-14			+10.2%	+4.0%	-13.9%	-13.2%	Blood pressure, Δ% ([4]; 30.0 mg/kg (p.o.)): +2.4%; Heart rate, Δ% ([4]; 30.0 mg/kg (p.o.)): -9.9%
CN(C1=NCCN1OCc1cccc[n+]1[O-])c1c(Cl)cccc1Cl [C, 2-[{[2-(2,6-Dichloro-N-methylanilino)-2-imidazolin-1-yl]oxy}methyl]pyridine 1-oxide]	26		-6		none				+0.3%	+6.3%	+1.2%	-5.8%	+2.2%	+3.2%	Blood pressure, Δ% ([2]; 1.0 mg/kg (i.v.), (5')): -14%; Blood pressure, Δ% ([2]; 3.0 mg/kg (i.v.), (10')): -21%; Heart rate, Δ% ([2]; 3.0 mg/kg (i.v.), (10')): -22%; Blood pressure, Δ% ([2]; 10.0 mg/kg (i.v.), (10')): -21%; Heart rate, Δ% ([2]; 10.0 mg/kg (i.v.), (10')): -22%
[O-][n+]1ccccc1CON1CCNC1=Nc1cccc(Cl)c1Cl [B, 2-([{2-[(2,3-Dichlorophenyl)imino]-1-imidazolidinyl}oxy]methyl)pyridine 1-oxide]	1.3	-5	0	-6	none	-25		-6	-4.1%	-11.8%	-7.8%	-8.4%			Blood pressure, Δ% ([2]; 10.0 mg/kg (i.v.), (15')): -50%
Cc1cc[n+]([O-])c(CON2CCNC2=Nc2c(Cl)cccc2Cl)c1 [D, 2-([{2-[(2,6-Dichlorophenyl)imino]-1-imidazolidinyl}oxy]methyl)-4-methylpyridin 1-oxide]	16			-27	none	-22			-7.0%	-10.0%	-10.2%	-7.5%	-12.6%	-13.3%	Blood pressure, Δ% ([2]; 1.0 mg/kg (i.v.), (3')): -22%

Reference: patent US4366160A, “Imidazole derivatives” (Hoffmann-La Roche Inc., priority 1980, dated 1982)
